# Data: US10039741B2, “Use of delta tocopherol for the treatment of lysosomal storage disorders” (The United States of America, as represented by the …, priority 2010, dated 2018)
# “Also recorded” adds a separate entry of the source.
# How the values were obtained:
# WT fibroblasts = test: Microarray gene expression; type: cell-based, human; set-up: ACACA expression, Toco treat WT / HMGCR expression, Toco treat WT / SREBF2 expression, Toco treat WT / LDLR expression, Toco treat WT: unit not given here; settings: 40 μM delta-tocopherol 5 days vs DMSO-treated
# Description: (§1) Five NPC fibroblast cell lines as well as five normal fibroblast cell lines were treated with 40 μM delta-tocopherol for 5 days with a medium change and sully of fresh compound on 3rd day. The total RNAs was prepared as the standard method described previously ( ). The microarray gene expression experiment was carried out in a core microarray facility at NHGRI with a set of AAAAA chips (Affymetrix). Partek Genomics Software Suite (Copyright, Partek Inc.) was used to perform analysis of microarray data. Affymetrix cell files were loaded into the software using the RMA algorithm, which involved background correction, quantile normalization, log-2 transformation, and median polish summarization. PCA and hierarchical clustering identified one sample as an outlier. This sample (sample number 12) was not considered for further analysis. ANOVA was performed to identify the differentially expressed genes for three comparisons: 1) NPC_DMSO vs WT_DMSO 2) NPC tocopherol-treated vs NPC_DMSO-treated and 3) WT_tocopherol-treated vs WT_DMSO-treated.
# Wolman disease cells = test: Amplex-red cholesterol assay (total cholesterol), combination therapy; type: cell-based, human
# From the text: (1) Amplex-red cholesterol assay. This biochemical assay (Invitrogen) uses cholesterol oxidase and a HRP-Amplex-re reporting system to measure the free cholesterol level in cells. With the addition of acid lipase to this assay, that hydrolyzes cholesterol ester to free cholesterol, the level of total cholesterol in cells including the cholesterol ester can be measured. This assay was used for detecting the total cholesterol level of in fibroblasts from patients with Wolman disease.
# [1] = human plasma, physiological level; cited from earlier work
# NPCD MSC cells = test: Lysosome size; type: cell-based, human
# Description: (§2) The adipose mesenchymal stem cells (HMSC.AD-100, HMSC-NPC22 and HMSC-NPC23) were isolated from two NPC patients as well as one heath individual and provided by Celleng-tech (Coralville, Iowa). These cells were maintained in MSC expansion media (Celleng-tech, cat# HMSC.E.Media-450) supplemented with 10% FBS 100 unit/ml penicillin and 100 μg/ml streptomycin at 5% CO2, 37° C. For neural differentiation, cells were initially plated at 30% confluency (˜2500 cells/cm^2) using MSC expansion media. After 24 hours, MSC expansion media were withdrew. Cells were washed twice with Dulbecco's phosphate Buffer saline (Invitrogen) and incubated with neural differentiation media (Celleng-tech, cat# NEU.D.Media-450) supplemented with 10% FBS, 100 unit/ml penicillin and 100 μg/ml streptomycin at 5% CO2, 37° C. for additional 3 days.
# neuron-like NPCD cells [2] = test: Lysosome size; type: cell-based, human; settings: neuron-like cells differentiated from NPCD patient MSC
# Description: as §2
# neuron-like NPCD cells [3] = test: Filipin staining co-stained with neuronal beta III tubulin; type: cell-based, human; settings: neuron-like cells differentiated from NPCD patient MSC
# Description: as §2
# MSC cells were seeded on coverslips on day 0 in MSC expansion medium. On day 1, cells were washed twice with warm PBS buffer and then incubated with MSC neuronal differentiation medium. On day 4, media were replaced with fresh neuronal differentiation medium. On day 6, cells were fixed with 3.2% paraformaldehyde in HBSS for 15 min. Immunocytochemistry for neuronal beta III tubulin and unesterified cholesterol (filipin staining) was performed as described. The coverslips were examined y a XXX microscope. […]
# [4] = system: Farber disease fibroblasts; test: Lysotracker staining assay; type: cell-based, human
# NPC fibroblasts = test: Microarray gene expression; type: cell-based, human; set-up: HMGCR expression, Toco treat NPC / SC4MOL expression, Toco treat NPC / DHCR7 expression, Toco treat NPC / MMP3 expression, Toco treat NPC: unit not given here; settings: 40 μM delta-tocopherol 5 days vs DMSO-treated
# Description: as §1
compound,measurement,setting,value
Cc1cc(O)cc2c1O[C@](C)(CCC[C@H](C)CCC[C@H](C)CCCC(C)C)CC2 [δ-tocopherol],"ABCA1 expression, Toco treat WT",WT fibroblasts,−1.4
same,"ACACA expression, Toco treat WT",WT fibroblasts,−1.5
same,"DHCR7 expression, Toco treat WT",WT fibroblasts,−1.6
same,"FADS2 expression, Toco treat WT",WT fibroblasts,−2.0
same,"FRRS1 expression, Toco treat WT",WT fibroblasts,−1.1
same,"HMGCR expression, Toco treat WT",WT fibroblasts,−1.5
same,"HMGCS1 expression, Toco treat WT",WT fibroblasts,−1.6
same,"INSIG1 expression, Toco treat WT",WT fibroblasts,−1.6
same,"LDLR expression, Toco treat WT",WT fibroblasts,−2.0
same,"MMP1 expression, Toco treat WT",WT fibroblasts,5.0
same,"MMP3 expression, Toco treat WT",WT fibroblasts,2.0
same,"NOX4 expression, Toco treat WT",WT fibroblasts,−1.7
same,"SC4MOL expression, Toco treat WT",WT fibroblasts,−1.7
same,"SCD expression, Toco treat WT",WT fibroblasts,−3.5
same,"SREBF1 expression, Toco treat WT",WT fibroblasts,−1.2
same,"SREBF2 expression, Toco treat WT",WT fibroblasts,−1.6
same,"cholesterol level, sole therapy",Wolman disease cells; 40 μM delta-tocopherol or 80 μM alpha-tocopherol alone,cholesterol reduction effect
same,"cholesterol level, combination",Wolman disease cells; delta-tocopherol 10 μM combined with 10 μM MBCD,cholesterol reduction effect
same,interaction of delta-tocopherol and cyclodextrin,Wolman disease cells; sub-effective concentrations combined,synergetic or additive effect
same,plasma concentration,[1],~0.1 µM
same,lysosome size,NPCD MSC cells,decrease in lysosome size
same,lysosome size,neuron-like NPCD cells [2],decrease in lysosome size
same,cholesterol accumulation,neuron-like NPCD cells [3],significant reduction
same,size of enlarged lysosomes,[4],significantly reduced
same,"ABCA1 expression, Toco treat NPC",NPC fibroblasts,significantly reduced; also recorded: decreased expression
same,"ACACA expression, Toco treat NPC",NPC fibroblasts,−1.5
same,"DHCR7 expression, Toco treat NPC",NPC fibroblasts,−1.7
same,"FADS2 expression, Toco treat NPC",NPC fibroblasts,−2.5
same,"FRRS1 expression, Toco treat NPC",NPC fibroblasts,1.1
same,"HMGCR expression, Toco treat NPC",NPC fibroblasts,decreased
same,"HMGCS1 expression, Toco treat NPC",NPC fibroblasts,−1.9
same,"INSIG1 expression, Toco treat NPC",NPC fibroblasts,−1.8
same,"LDLR expression, Toco treat NPC",NPC fibroblasts,significantly reduced; also recorded: decreased expression
same,"MMP1 expression, Toco treat NPC",NPC fibroblasts,2.7
same,"MMP3 expression, Toco treat NPC",NPC fibroblasts,1.7
same,"NOX4 expression, Toco treat NPC",NPC fibroblasts,−1.1
same,"SC4MOL expression, Toco treat NPC",NPC fibroblasts,−1.4
same,"SCD expression, Toco treat NPC",NPC fibroblasts,decreased
same,"SREBF1 expression, Toco treat NPC",NPC fibroblasts,−1.4
same,"SREBF2 expression, Toco treat NPC",NPC fibroblasts,−1.6
same,"ABCA1 expression, Toco treat NPC",NPC fibroblasts; listed as tocopherol,−2.0
same,"HMGCR expression, Toco treat NPC",NPC fibroblasts; listed as tocopherol,−1.7
same,"LDLR expression, Toco treat NPC",NPC fibroblasts; listed as tocopherol,−2.0
same,"SCD expression, Toco treat NPC",NPC fibroblasts; listed as tocopherol,−3.9
